Columns and labels:
Type in all cases: cell-based
E. coli BL21 = experiment: MIC against Gram-negative bacteria: E. coli BL21; conditions: 5×10^5 CFU/mL
Summary of the method: (§1)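 Read-out is absence of bacterial growth, with MIC set at the lowest recombinant protein concentration achieving it. Bacteria, pre-grown in LB to McFarland 0.5 and resuspended, were exposed at 5×10^5 CFU/mL to two-fold diluted human EGF domain proteins in triplicate at 37° C, 175 rpm.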

Proteus vulgaris = experiment: MIC against Gram-negative bacteria: Proteus vulgaris; conditions: 5×10^5 CFU/mL
Summary of the method: as §1

E. coli DH5α = experiment: Antibacterial activity: MIC and growth curve against E. coli DH5α in 96-well plate; conditions: minimal inhibitory concentration against E. coli DH5α; 96-well plate, 5×10^5 CFU/mL, 37° C., judged after 8 h
Summary of the method: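 Log-phase DH5α (OD600 about 0.5, 37° C, 185 rpm in LB) was pelleted, resuspended in fresh LB and seeded at 5×10^5 CFU/mL with recombinant protein at 50, 25 and 12.5 μg/mL (two-fold series), in triplicate. Plates were shaken at 175 rpm, 37° C, and OD600 was read every 30 min. MIC was the lowest concentration with no growth.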

Serratia marcescens = experiment: MIC against Gram-negative bacteria: Serratia marcescens; conditions: 5×10^5 CFU/mL
Summary of the method: as §1

Aeromonas hydrophila = experiment: MIC against Gram-negative bacteria: Aeromonas hydrophila; conditions: 5×10^5 CFU/mL
Summary of the method: as §1

Pseudomonas aeruginosa = experiment: MIC against Gram-negative bacteria: Pseudomonas aeruginosa; conditions: 5×10^5 CFU/mL
Summary of the method: as §1

Klebsiella pneumonia = experiment: MIC against Gram-negative bacteria: Klebsiella pneumonia; conditions: 5×10^5 CFU/mL
Summary of the method: as §1

Moraxella catarrhalis = experiment: MIC against Gram-negative bacteria: Moraxella catarrhalis; conditions: 5×10^5 CFU/mL
Summary of the method: as §1

Citrobacter diversus = experiment: MIC against Gram-negative bacteria: Citrobacter diversus; conditions: 5×10^5 CFU/mL
Summary of the method: as §1

Proteus mirabilis = experiment: MIC against Gram-negative bacteria: Proteus mirabilis; conditions: 5×10^5 CFU/mL
Summary of the method: as §1

Enterobacter cloacae = experiment: MIC against Gram-negative bacteria: Enterobacter cloacae; conditions: 5×10^5 CFU/mL
Summary of the method: as §1

[1] = E. coli BL21, 96-well plate, 37° C., 10 h
[2] = Proteus vulgaris, 96-well plate, 37° C., 10 h
[3] = Serratia marcescens, 96-well plate, 37° C., 10 h
[4] = Aeromonas hydrophila, 96-well plate, 37° C., 10 h
[5] = Pseudomonas aeruginosa, 96-well plate, 37° C., 10 h
[6] = Klebsiella pneumonia, 96-well plate, 37° C., 10 h
[7] = Moraxella catarrhalis, 96-well plate, 37° C., 10 h
[8] = Citrobacter diversus, 96-well plate, 37° C., 10 h
[9] = Proteus mirabilis, 96-well plate, 37° C., 10 h
[10] = Enterobacter cloacae, 96-well plate, 37° C., 10 h
[11] = E. coli BL21, 10 h cultivation at 37° C.
[12] = P. vulgaris, 10 h cultivation at 37° C.
[13] = S. marcescens, 10 h cultivation at 37° C.
[14] = A. hydrophila, 10 h cultivation at 37° C.
[15] = P. aeruginosa, 10 h cultivation at 37° C.
[16] = K. pneumonia, 10 h cultivation at 37° C.
[17] = M. catarrhalis, 10 h cultivation at 37° C.
[18] = C. diversus, 10 h cultivation at 37° C.
[19] = P. mirabilis, 10 h cultivation at 37° C.
[20] = E. cloacae, 10 h cultivation at 37° C.

“PRT1273 (DVDECEREDNAGCVHDCVNIPGNYRCTCYDGFHLAHDGHNCL; listed as Homo sapiens)” was tested, and the “MIC against E. coli BL21” value (E. coli BL21; [1]) was 50 µg/mL, the “MIC against P. vulgaris” value (Proteus vulgaris; [2]) was 12.5 µg/mL and the MIC (E. coli DH5α) was 12.5 µg/mL. For the same substance, the “MIC against S. marcescens” value (Serratia marcescens; [3]) was 50 µg/mL, the “MIC against A. hydrophila” value (Aeromonas hydrophila; [4]) was 50 µg/mL and the “MIC against P. aeruginosa” value (Pseudomonas aeruginosa; [5]) was 12.5 µg/mL. The “MIC against K. pneumonia” value (Klebsiella pneumonia; [6]) was 50 µg/mL, the “MIC against M. catarrhalis” value (Moraxella catarrhalis; [7]) was 12.5 µg/mL and the “MIC against C. diversus” value (Citrobacter diversus; [8]) was 25 µg/mL. For the same substance, the “MIC against P. mirabilis” value (Proteus mirabilis; [9]) was 50 µg/mL and the “MIC against E. cloacae” value (Enterobacter cloacae; [10]) was 12.5 µg/mL.
For “PRT98 (DINECATPSKVSCGKFSDCWNTEGSYDCVCSPGYEPVSGAKTFKNESENTCQ; listed as Homo sapiens)”, the “MIC (μg/mL) E. coli BL21” value (E. coli BL21; [1]) was 50 µg/mL, the “MIC (μg/mL) P. vulgaris” value (Proteus vulgaris; [2]) was 12.5 µg/mL and the MIC (E. coli DH5α) was 12.5 µg/mL. The “MIC (μg/mL) S. marcescens” value (Serratia marcescens; [3]) was 50 µg/mL, the “MIC (μg/mL) A. hydrophila” value (Aeromonas hydrophila; [4]) was 50 µg/mL and the “MIC (μg/mL) P. aeruginosa” value (Pseudomonas aeruginosa; [5]) was 25 µg/mL. For the same substance, the “MIC (μg/mL) K. pneumonia” value (Klebsiella pneumonia; [6]) was 12.5 µg/mL, the “MIC (μg/mL) M. catarrhalis” value (Moraxella catarrhalis; [7]) was 100 µg/mL and the “MIC (μg/mL) C. diversus” value (Citrobacter diversus; [8]) was 25 µg/mL. The “MIC (μg/mL) P. mirabilis” value (Proteus mirabilis; [9]) was 50 µg/mL and the “MIC (μg/mL) E. cloacae” value (Enterobacter cloacae; [10]) was 25 µg/mL.
With “PRT19 (CSCDPQGAVRDDCEQMTGLCSCKPGVAGPKCGQCPDGRALGPAGCEA; listed as Homo sapiens)” the “MIC (μg/mL) E. coli BL21” value (E. coli BL21; [1]) was 12.5 µg/mL, the “MIC (μg/mL) P. vulgaris” value (Proteus vulgaris; [2]) was 25 µg/mL and the MIC (E. coli DH5α) was 25 µg/mL. The “MIC (μg/mL) S. marcescens” value (Serratia marcescens; [3]) was 50 µg/mL, the “MIC (μg/mL) A. hydrophila” value (Aeromonas hydrophila; [4]) was 12.5 µg/mL and the “MIC (μg/mL) P. aeruginosa” value (Pseudomonas aeruginosa; [5]) was 12.5 µg/mL. For the same substance, the “MIC (μg/mL) K. pneumonia” value (Klebsiella pneumonia; [6]) was 25 µg/mL, the “MIC (μg/mL) M. catarrhalis” value (Moraxella catarrhalis; [7]) was 50 µg/mL and the “MIC (μg/mL) C. diversus” value (Citrobacter diversus; [8]) was 25 µg/mL. For the same substance, the “MIC (μg/mL) P. mirabilis” value (Proteus mirabilis; [9]) was 12.5 µg/mL and the “MIC (μg/mL) E. cloacae” value (Enterobacter cloacae; [10]) was 50 µg/mL.
In the case of “PRT758 (RVDHCAQQDHGCEQLCLNTEDSFVCQCSEGFLINEDLKTCS; listed as Homo sapiens)”, the “MIC (μg/mL) E. coli BL21” value (E. coli BL21; [11]) is reported as 25 µg/mL, the “MIC (μg/mL) P. vulgaris” value (Proteus vulgaris; [12]) is reported as 12.5 µg/mL and the MIC (E. coli DH5α) is reported as 12.5 µg/mL. For the same substance, the “MIC (μg/mL) S. marcescens” value (Serratia marcescens; [13]) was 12.5 µg/mL, the “MIC (μg/mL) A. hydrophila” value (Aeromonas hydrophila; [14]) was 50 µg/mL and the “MIC (μg/mL) P. aeruginosa” value (Pseudomonas aeruginosa; [15]) was 50 µg/mL. The “MIC (μg/mL) K. pneumonia” value (Klebsiella pneumonia; [16]) was 50 µg/mL, the “MIC (μg/mL) M. catarrhalis” value (Moraxella catarrhalis; [17]) was 12.5 µg/mL and the “MIC (μg/mL) C. diversus” value (Citrobacter diversus; [18]) was 25 µg/mL. For the same substance, the “MIC (μg/mL) P. mirabilis” value (Proteus mirabilis; [19]) was 25 µg/mL and the “MIC (μg/mL) E. cloacae” value (Enterobacter cloacae; [20]) was 25 µg/mL.
With “PRT506 (CNCSVAGSVSDGCTDEGQCHCVPGVAGKRCDRCAHGFYAYQDGSCTP; listed as Homo sapiens)” the “MIC against E. coli BL21” value (E. coli BL21; 96-well plate, 37° C., 10 h) was 12.5 µg/mL, the “MIC against P. vulgaris” value (Proteus vulgaris; 96-well plate, 37° C., 10 h) was 12.5 µg/mL and the MIC (E. coli DH5α) was 25 µg/mL. The “MIC against S. marcescens” value (Serratia marcescens; 96-well plate, 37° C., 10 h) was 12.5 µg/mL, the “MIC against A. hydrophila” value (Aeromonas hydrophila; 96-well plate, 37° C., 10 h) was 12.5 µg/mL and the “MIC against P. aeruginosa” value (Pseudomonas aeruginosa; 96-well plate, 37° C., 10 h) was 25 µg/mL. For the same substance, the “MIC against K. pneumonia” value (Klebsiella pneumonia; 96-well plate, 37° C., 10 h) was 50 µg/mL, the “MIC against M. catarrhalis” value (Moraxella catarrhalis; 96-well plate, 37° C., 10 h) was 50 µg/mL and the “MIC against C. diversus” value (Citrobacter diversus; 96-well plate, 37° C., 10 h) was 25 µg/mL. The “MIC against P. mirabilis” value (Proteus mirabilis; 96-well plate, 37° C., 10 h) was 25 µg/mL and the “MIC against E. cloacae” value (Enterobacter cloacae; 96-well plate, 37° C., 10 h) was 25 µg/mL.
With “PRT422 (DVDECALGTHNCSEAETCHNIQGSFRCLRFECPPNYVQVSKTKCE; listed as Homo sapiens)” the MIC (E. coli BL21; [11]) was 25 µg/mL, the MIC (Proteus vulgaris; [12]) was 12.5 µg/mL and the MIC (E. coli DH5α) was 12.5 µg/mL. For the same substance, the MIC (Serratia marcescens; [13]) was 25 µg/mL, the MIC (Aeromonas hydrophila; [14]) was 25 µg/mL and the MIC (Pseudomonas aeruginosa; [15]) was 12.5 µg/mL. For the same substance, the MIC (Klebsiella pneumonia; [16]) was 25 µg/mL, the MIC (Moraxella catarrhalis; [17]) was 12.5 µg/mL and the MIC (Citrobacter diversus; [18]) was 12.5 µg/mL. For the same substance, the MIC (Proteus mirabilis; [19]) was 25 µg/mL and the MIC (Enterobacter cloacae; [20]) was 12.5 µg/mL.

— patent US9833497B2, “Human originated EGF domain proteins and use of the same” (CHENGDU SOURCEBIO LIMITED-LIABILITY COMPANY, priority 2013, dated 2017)
